Legend:
[1] = Pharmacokinetic study: plasma L-Dopa after single subcutaneous administration of CLX-SYN-G107B-C01; type: in vivo, Sprague-Dawley rats; conditions: lowest tested dose of 50 mg/kg s.c. compared to other doses, SD rats
Experimental: (§1) The objective of this study was to determine the pharmacokinetics of L-Dopa after a single subcutaneous administration of CLX-SYN-G107B-C01 at the doses of 50, 150 and 300 mg/Kg, in male Sprague-Dawley (SD) rats.
(§2) Three groups of 5-male rats in each (age 8-10 weeks; body weight range 198-226 g) were assigned to receive CLX-SYN-G107B-C01 at the doses of 50, 150 and 300 mg/kg, by subcutaneous route. CLX-SYN-G107B-C01 was formulated in Propylene glycol and PEG-300 for subcutaneous administration. The dose volume was 2 ml/kg.
The blood samples (0.2 mL/time point) from the animals were collected at 0 (pre-dose), 0.083, 0.25, 0.5, 1, 2, 4, 8, 10, 24, 48 and 72 h post dosing after subcutaneous administration. The plasma samples were analyzed for L-Dopa using a fit-for-purpose LC-MS/MS method.

[2] = Clinical signs of toxicity in the pharmacokinetic study; type: in vivo; conditions: single s.c. dose 50, 150 and 300 mg/Kg, male SD rats
Experimental: as §1, §2

CCCCCCC(=O)N[C@@H](Cc1ccc(O)c(O)c1)C(=O)OCC(COC(=O)CCCCCC)OC(=O)CCCCCC (stereo partly drawn) [CLX-SYN-G107B-C01, 3-(((S)-3-(3,4-dihydroxyphenyl)-2-heptanamidopropanoyl)oxy)propane-1,2-diyl diheptanoate]
Bioavailability (comparison of doses) [1]: enhanced bioavailability with low dose | Clinical signs of toxicity [2]: No clinical signs of toxicity were observed

Reference: patent publication US20210380525A1, “COMPOSITIONS AND METHODS FOR THE TREATMENT OF PARKINSON'S DISEASE” (Cellix Bio Private Limited, priority 2018, published 2021)
